From patent US9980904B2, “Dry powder formulation” (Teva Branded Pharmaceutical Products R&D, Inc., priority 2014, dated 2018)

Columns and labels:
Type in all cases: physicochemical
[1] = Study 3 eight week in-use stability study: aerodynamic particle size distribution (FPF and FPD); conditions: eight week in-use at 30° C./65% RH (unwrapped) after equilibration by protocol 2
Method: (§1) Following inhaler equilibration according to protocol 2 (six weeks at 40° C./75% RH wrapped in foil with desiccant), eight-week stability tests of fluticasone propionate and salmeterol xinafoate (25 μg/25 μg and 100 μg/25 μg) were conducted. The in-use stability testing was conducted at 30° C./65% RH (unwrapped) as per discussion with the FDA. […] Following inhaler equilibration according to protocol 3 (six weeks at 40° C. wrapped in foil with desiccant), six-month stability tests of fluticasone propionate and salmeterol xinafoate (25 μg/25 μg and 100 μg/25 μg) were conducted. The stability of the formulations was assessed following storage under two different condition sets.

[2] = Study 1 equilibration study: aerodynamic particle size distribution analysis (FPF and FPD) after 6 week equilibration
Method: (§2) Two batches of fluticasone/salmeterol housed within a Spiromax® device were prepared. […] Each batch was divided into two and equilibrated for six weeks under the conditions specified by each protocol. Protocol 1: 30° C./65% RH (unwrapped) Protocol 2: 40° C. […] Two batches of fluticasone/salmeterol housed within a Spiromax® device were prepared. Combination batches of fluticasone propionate and salmeterol xinafoate were selected at two different strengths, as in study 1. Each batch was divided into two and equilibrated for six weeks under the conditions specified by each protocol. Protocol 1: 30° C./65% RH (unwrapped) Protocol 3: 40° C.

[3] = Study 4 six month stability study: aerodynamic particle size distribution (FPF and FPD)
Method: as §1

[4] = Study 2 equilibration study: aerodynamic particle size distribution analysis (FPF and FPD) during 6 week equilibration
Method: as §2

[5] = Study 1, batch 25/25 μg Fp/Sx in Spiromax, 30° C./65% RH (unwrapped)
[6] = Study 1, batch 25/25 μg, 40° C. (wrapped in foil with desiccant)
[7] = Study 1, batch 100/25 μg, 30° C./65% RH (unwrapped)
[8] = Study 1, batch 100/25 μg, 40° C. (wrapped in foil with desiccant)
[9] = Study 4, batch 25/25, six month storage at 25° C./60% RH (wrapped) after equilibration by protocol 3
[10] = Study 4, batch 25/25, six month storage at 40° C. (wrapped) after equilibration by protocol 3
[11] = Study 4, batch 100/25, six month storage at 25° C./60% RH (wrapped) after equilibration by protocol 3
[12] = Study 4, batch 100/25, six month storage at 40° C. (wrapped) after equilibration by protocol 3
[13] = Study 2, batch 25/25 μg, 30° C./65% RH (unwrapped)
[14] = Study 2, batch 25/25 μg, 40° C. (wrapped in foil with desiccant)
[15] = Study 2, batch 100/25 μg, 30° C./65% RH (unwrapped)
[16] = Study 2, batch 100/25 μg, 40° C. (wrapped in foil with desiccant)

Row | SMILES | Aerodynamic particle size distribution (% change from base) FPD ([1]; Study 3, batch 25/25 μg) [%] | Aerodynamic particle size distribution (% change from base) FPF ([1]; Study 3, batch 25/25 μg) [%] | Aerodynamic particle size distribution (% change from base) FPD ([1]; Study 3, batch 100/25 μg) [%] | Aerodynamic particle size distribution (% change from base) FPF ([1]; Study 3, batch 100/25 μg) [%] | Aerodynamic particle size distribution (% change from base) FPD [2, 5] [%] | Aerodynamic particle size distribution (% change from base) FPF [2, 5] [%] | Aerodynamic particle size distribution (% change from base) FPD [2, 6] [%] | Aerodynamic particle size distribution (% change from base) FPF [2, 6] [%] | Aerodynamic particle size distribution (% change from base) FPD [2, 7] [%] | Aerodynamic particle size distribution (% change from base) FPF [2, 7] [%] | Aerodynamic particle size distribution (% change from base) FPD [2, 8] [%] | Aerodynamic particle size distribution (% change from base) FPF [2, 8] [%] | Aerodynamic particle size distribution (% change from base) FPD [3, 9] [%] | Aerodynamic particle size distribution (% change from base) FPF [3, 9] [%] | Aerodynamic particle size distribution (% change from base) FPD [3, 10] [%] | Aerodynamic particle size distribution (% change from base) FPF [3, 10] [%] | Aerodynamic particle size distribution (% change from base) FPD [3, 11] [%] | Aerodynamic particle size distribution (% change from base) FPF [3, 11] [%] | Aerodynamic particle size distribution (% change from base) FPD [3, 12] [%] | Aerodynamic particle size distribution (% change from base) FPF [3, 12] [%] | other results
1 | OCc1cc(C(O)CNCCCCCCOCCCCc2ccccc2)ccc1O (centres unmarked) [Sx, salmeterol xinafoate] | −17 | −14 | −4 | −3 | −20 | −19 | −2 | −2 | −9 | −10 | 0 | 0 | −5 | 0 | −9 | −4 | −3 | −1 | −13 | −9 | Aerodynamic particle size distribution (% change from base) FPD [4, 13]: −20%; Aerodynamic particle size distribution (% change from base) FPF [4, 13]: −18%; Aerodynamic particle size distribution (% change from base) FPD [4, 14]: −2%; Aerodynamic particle size distribution (% change from base) FPF [4, 14]: −2%; Aerodynamic particle size distribution (% change from base) FPD [4, 15]: −9%; Aerodynamic particle size distribution (% change from base) FPF [4, 15]: −10%; Aerodynamic particle size distribution (% change from base) FPD [4, 16]: 0%; Aerodynamic particle size distribution (% change from base) FPF [4, 16]: 0%
2 | CCC(=O)O[C@]1(C(=O)SCF)[C@H](C)C[C@H]2[C@@H]3C[C@H](F)C4=CC(=O)C=C[C@]4(C)[C@@]3(F)[C@@H](O)C[C@@]21C [Fp, fluticasone propionate] | −10 | −9 | 0 | 0 | −16 | −19 | −13 | −12 | −13 | −12 | −17 | −14 | −4 | 0 | −9 | −6 | 0 | 0 | −8 | −6 | Aerodynamic particle size distribution (% change from base) FPD [4, 13]: −19%; Aerodynamic particle size distribution (% change from base) FPF [4, 13]: −16%; Aerodynamic particle size distribution (% change from base) FPD [4, 14]: −13%; Aerodynamic particle size distribution (% change from base) FPF [4, 14]: −12%; Aerodynamic particle size distribution (% change from base) FPD [4, 15]: −12%; Aerodynamic particle size distribution (% change from base) FPF [4, 15]: −12%; Aerodynamic particle size distribution (% change from base) FPD [4, 16]: −16%; Aerodynamic particle size distribution (% change from base) FPF [4, 16]: −14%
